{"source": "patent EP0516861A1", "about": "“PYRIDONECARBOXYLIC ACID DERIVATIVE” (BANYU PHARMACEUTICAL CO., LTD., priority 1990, dated 1992)", "key": {"[1]": {"tested_on": "P388/V", "test": "Proliferation inhibition, drug-sensitive P388 cells (MTT method)", "assay_type": "cell-based, murine", "settings": "Mus musculus, P388, 72 h, 3 days culture, read-out: IC₅₀ P388/V", "experimental": "(§1) Proliferation inhibition effects againt P388/multiple drug - resistant cells were measured using vincristine and adriamycin as comparative compounds.\n(§2) In this experiment, a drug - sensitive strain (P388/S) of a murine leukemia cell P388 and a drug - resistant strain (P388/VCR, T. Turuo, H. Iida, S. Tsukagoshi, et al., Cancer Research 42, 4730 - 4733, 1982) were suspended respectively in RPMI 1640 media containing a drug in various concentrations, 10 % fetal bovine serum and 20 µ M β - mercaptoethanol, respectively, and seeded in a 96 - well microtest plate in a number of 10⁴ cells/well, and cultured at 37°C under CO₂ gas for 3 days. Calculation of 50% proliferation inhibition concentration (IC₅₀) was made by the MTT method (M. C. Alley, D. A. Scudiero, A. Monks, et al., Cancer Research 48, 589 - 601, 1988)."}, "[2]": {"test": "Acute toxicity against a mouse", "assay_type": "in vivo, CDF₁ mice", "settings": "5 mg/kg intravenously, observation for one week", "experimental": "5 mg/kg portions of the compound of Example 9 were intravenously injected into CDF₁ mice (♀, 5 weeks old) according to a conventional manner, respectively."}, "[3]": {"tested_on": "P388", "test": "Life-span prolonging effect on P388 leukemia-bearing mice", "assay_type": "in vivo, CDF₁ mice", "experimental": "(§3) In this experiment, 10⁶ L1210 cells or 10⁴ P388 cells were intraperitoneally transplanted into CDF₁ mice (♀, 5 weeks old), a drug in the various concentrations was intraperitoneally injected once a day for continuous 10 days from the day after the transplantation, and survival periods after the tumor transplantation were recorded."}, "[4]": {"tested_on": "P388/VCR", "test": "Proliferation inhibition, multiple drug-resistant P388 cells (MTT method)", "assay_type": "cell-based, murine", "settings": "Mus musculus, 72 h, 3 days culture, read-out: IC₅₀ P388/VCR", "experimental": "as §1, §2"}, "[5]": {"molecular_target": "DNA topoisomerase II", "test": "DNA topoisomerase inhibition activity (DNA relaxation, agarose-gel electrophoresis)", "assay_type": "biochemical, murine", "settings": "relaxation of supercoiled pBR 322 plasmid DNA, 37°C for 10 minutes, enzyme from L1210 nuclei", "experimental": "(§4) In this experiment, as enzymes were used DNA topoisomerase I and DNA topoisomerase II obtained by purifying an extract from the nuclei of cells of L1210 murine leukemia by column chromatography using hydroxylapatite and phosphocellulose, respectively, and as a DNA was used supercoiled pBR 322 plasmid DNA.\n(§5) Measurement of inhibition effect was made by the method disclosed in a literature, i. e. Okura et al., Biochem. Biophys. Res. Comm. 157, 183 - 189, 1988, namely by warming at 37°C for 10 minutes the supercoiled DNA in DNA topoisomerase I or DNA topoisomerase II solutions containing a drug in various concentrations, and then detecting the resultant topology changes of the DNA as changes of the electrophoretic images in agarose - gel electrophoresis."}, "[6]": {"molecular_target": "T1, DNA topoisomerase I (Mus musculus, UniProt Q04750)", "T1 construct": "obtained by purifying an extract from the nuclei of cells of L1210 murine leukemia by column chromatography; endogenous in cells; host or cells: L1210 murine leukemia cells (nuclear extract, purified on hydroxylapatite / phosphocellulose columns)", "T1 sequence (Q04750 1-767)": "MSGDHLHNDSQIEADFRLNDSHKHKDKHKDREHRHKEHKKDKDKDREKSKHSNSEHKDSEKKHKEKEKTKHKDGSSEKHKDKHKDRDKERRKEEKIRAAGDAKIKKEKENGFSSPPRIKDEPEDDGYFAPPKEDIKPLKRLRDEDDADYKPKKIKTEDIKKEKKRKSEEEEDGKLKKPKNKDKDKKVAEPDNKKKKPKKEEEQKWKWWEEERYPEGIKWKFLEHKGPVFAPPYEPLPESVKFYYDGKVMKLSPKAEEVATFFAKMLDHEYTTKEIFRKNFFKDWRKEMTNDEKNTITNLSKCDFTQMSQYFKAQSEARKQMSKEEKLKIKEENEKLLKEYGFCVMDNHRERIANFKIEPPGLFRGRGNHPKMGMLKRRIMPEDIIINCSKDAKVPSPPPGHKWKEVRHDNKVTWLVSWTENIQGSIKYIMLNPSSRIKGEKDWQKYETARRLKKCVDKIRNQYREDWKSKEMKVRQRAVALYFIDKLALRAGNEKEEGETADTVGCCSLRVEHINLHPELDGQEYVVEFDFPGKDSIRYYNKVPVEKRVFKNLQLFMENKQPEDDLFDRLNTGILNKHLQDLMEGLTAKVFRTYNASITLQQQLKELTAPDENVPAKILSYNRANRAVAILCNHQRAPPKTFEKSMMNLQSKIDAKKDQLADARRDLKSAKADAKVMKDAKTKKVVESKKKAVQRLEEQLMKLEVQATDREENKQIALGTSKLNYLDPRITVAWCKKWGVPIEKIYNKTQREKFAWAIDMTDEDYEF", "test": "DNA topoisomerase inhibition activity (DNA relaxation, agarose-gel electrophoresis)", "assay_type": "biochemical, murine", "settings": "relaxation of supercoiled pBR 322 plasmid DNA, 37°C for 10 minutes, enzyme from L1210 nuclei; read-out: IC₅₀ DNA topoisomerase I (converted)", "experimental": "as §4, §5"}, "[7]": {"tested_on": "L1210 cells", "test": "In vitro cytotoxicity against L1210 murine leukemia (proliferation inhibition)", "assay_type": "cell-based", "settings": "Mus musculus, 72 h; L1210 cells, cultured 3 days, Coulter counter; read-out: IC₅₀", "experimental": "In this experiment, respective 2 × 10⁴ L1210 cells were cultured at 37°C under 5% CO₂ gas for 3 days in respective RPMI 1640 media containing a drug in various concentrations and 10 % fetal bovine serum, and the numbers of the cells after the culture were counted using a Coulter counter."}, "[8]": {"tested_on": "L1210", "test": "Life-span prolonging effect on L1210 leukemia-bearing mice", "assay_type": "in vivo, CDF₁ mice", "experimental": "as §3"}, "[9]": {"settings": "dose 0.020 mg/kg intraperitoneally once a day for 10 days"}, "[10]": {"settings": "dose 0.078 mg/kg intraperitoneally once a day for 10 days"}, "[11]": {"settings": "dose 0.313 mg/kg intraperitoneally once a day for 10 days"}}}
{"smiles": "Cl.N[C@@H]1C=CC[C@@H]2CN(c3c(F)cc4c(=O)c(C(=O)O)cn(C5CC5)c4c3F)C[C@@H]21", "note": "(single isomer, unassigned) [Compound of Ex.9, (-) - 7 - [(1R*, 2R*, 6S*) - 2 - amino - 8 - azabicyclo [4.3.0]non - 3 - en - 8 - yl] - 1 - cyclopropyl - 6, 8 - difluoro - 1, 4 - dihydro - 4 - oxo - 3 - quinolinecarboxylic acid hydrochloride]", "values": [{"measurement": "IC50", "setting": "[1]", "value": 0.018, "unit": "µg/mL"}, {"measurement": "death in acute toxicity test", "setting": "[2]", "value": "No case of death"}, {"measurement": "Mean survival days P388", "setting": "[3]; [9]", "value": 12.0, "unit": "days"}, {"measurement": "T/C % P388", "setting": "[3]; [9]", "value": 107, "unit": "%"}, {"measurement": "Mean survival days P388", "setting": "[3]; [10]", "value": 14.0, "unit": "days"}, {"measurement": "T/C % P388", "setting": "[3]; [10]", "value": 125, "unit": "%"}, {"measurement": "Mean survival days P388", "setting": "[3]; [11]", "value": 16.4, "unit": "days"}, {"measurement": "T/C % P388", "setting": "[3]; [11]", "value": 146, "unit": "%"}, {"measurement": "IC50", "setting": "[4]", "value": 0.018, "unit": "µg/mL"}, {"measurement": "IC₅₀ DNA topoisomerase II", "setting": "[5]", "value": 2, "unit": "µg/mL"}, {"measurement": "IC50", "setting": "[6]", "value": 457, "unit": "µM"}, {"measurement": "IC50", "setting": "[7]", "value": 0.019, "unit": "µg/mL"}, {"measurement": "Mean survival days L1210", "setting": "[8]; [9]", "value": 31.0, "unit": "days"}, {"measurement": "T/C % L1210", "setting": "[8]; [9]", "value": 226, "unit": "%"}, {"measurement": "Mean survival days L1210", "setting": "[8]; [10]", "value": 32.4, "unit": "days"}, {"measurement": "T/C % L1210", "setting": "[8]; [10]", "value": 236, "unit": "%"}, {"measurement": "Mean survival days L1210", "setting": "[8]; [11]", "value": 21.2, "unit": "days"}, {"measurement": "T/C % L1210", "setting": "[8]; [11]", "value": 155, "unit": "%"}, {"measurement": "effect at an administration quantity of 0.02 mg/kg", "setting": "[8]; life-span prolongation, 0.02 mg/kg intraperitoneal", "value": "effective"}]}
